According to publication PMC11617653, “Macrocyclic Inhibitors Targeting the Prime Site of the Fibrinolytic Serine Protease Plasmin” (Chemmedchem, 2024):
Values joined by “and” are separate entries in the source; they are usually repeats but may differ in a detail not shown here. Equal entries are not always repeated. Where two headings read alike, the source gives them in different places. Positions of bridges follow the written chain, without caps; N, C: chain ends. Non-standard residues stand in square brackets, D forms with d. Residues, ends and D or L forms follow the SMILES beside them. Phe(4-NH2) = Nc1ccc(C[C@H](N)C(=O)O)cc1; Trx = NC[C@H]1CC[C@H](C(=O)O)CC1; βAla = NCCC(=O)O

How the values were obtained:
Type in all cases: biochemical
human plasmin = target: T1, human plasmin (Homo sapiens, UniProt P00747); experiment: Inhibition of human plasmin, fluorogenic substrate Mes-DArg-Phe-Arg-AMC
T1 construct: purchased Calbiochem
Experimental: All inhibitors prepared in this study act as reversible competitive plasmin inhibitors, their K i values were calculated by fitting the steady‐state velocities as function of the inhibitor concentrations using equation 1. 4‐aminophenylalanine (Phe(4‐NH2)) was incorporated as P1’ residue in the first inhibitor series, which enabled a macrocyclization via amide bond formation from its side chain amino group using various linker segments and P2’ residues (Table 1). […] The improved potency of SFTI‐1 analogues with basic P2’ residues[9] stimulated the incorporation of Arg in that position leading to inhibitor 4 with a slightly stronger inhibitory potency. A significant improvement could be achieved when using 3‐ or 4‐aminophenylacetic acid as P2’ group in combination with elongated linker residues (5‐6). […] However, inhibitor 9 is a twofold stronger plasmin inhibitor compared to its analogue 8.
For these inhibitors the steady‐state velocities were calculated by fitting the progress curves to equation 2 providing an additional apparent first‐order rate constant k obs for each curve. The steady‐state rates were used for K i determination with equation 1 and the k obs values for the calculation of the association rate constants k on according to equation 3. The dissociation rate constant k off was calculated from the known K i and k on values using equation 4. The enzyme kinetic evaluation of slow‐binding inhibitors of plasmin has already been described in detail in our two previous publications.[11, 12]
All measurements were conducted as triplicates in black 96‐well FluoroNunc MaxiSorp plates (Nunc, Langenselbold, Germany) and suitable fluorogenic substrates at room temperature. […] Each well contained a total volume of 180 μL consisting of 100 μL of inhibitor dissolved in buffer, 40 μL of the substrate Mes‐DArg‐Phe‐Arg‐AMC[11] (100 μM in assay, KM=16.1 μM) dissolved in water and 40 μL of plasmin solution (0.27 nM in assay). The following equations were used for the enzyme kinetic analysis as described in the results section and in our previous publications.[11, 12] (1) [drawing 71] (2) [drawing 72] (3) [drawing 73] (4) [drawing 74]

[1] = target: activated protein C (aPC) (Homo sapiens, UniProt P04070); experiment: Selectivity: inhibition of activated protein C; conditions: deduced from pre-assays with only three inhibitor concentrations; read-out: aPC K i
Experimental: (§1) For these three proteases a selectivity index (SI=K i(protease)/K i(plasmin)) was calculated, which is provided in brackets after the inhibition constants (Table 3).
(§2) The measurements with the related trypsin‐like serine proteases trypsin, plasma kallikrein, factor XIa, thrombin, activated protein Ca and factor Xa used in selectivity studies were performed as described previously.[11, 12]

plasma kallikrein (PK) = plasma kallikrein (PK) (Homo sapiens, UniProt P03952); experiment: Selectivity: inhibition of plasma kallikrein; conditions: for PK selectivity index K i(protease)/Ki(plasmin): in brackets; for Ki: read-out: PK K i
Experimental: as §1, §2

thrombin = thrombin (Homo sapiens, UniProt P00734); experiment: Selectivity: inhibition of thrombin; conditions: deduced from pre-assays with only three inhibitor concentrations; read-out: Thrombin K i
Experimental: as §1, §2

factor XIa (fXIa) = factor XIa (fXIa) (Homo sapiens, UniProt P03951); experiment: Selectivity: inhibition of factor XIa; conditions: for fXIa selectivity index K i(protease)/Ki(plasmin): in brackets; for Ki: read-out: fXIa K i
Experimental: as §1, §2

factor Xa (fXa) = factor Xa (fXa) (Homo sapiens, UniProt P00742); experiment: Selectivity: inhibition of factor Xa; conditions: deduced from pre-assays with only three inhibitor concentrations; read-out: fXa K i
Experimental: as §1, §2

[2] = K i (nM), inhibition of plasmin, series two, substituted Bpa in P1', and acyclic analogues, steady-state velocities, equation 1
[3] = Plasmin K i, Table 3 selectivity
[4] = K i (μM), inhibition of plasmin, series one, 4-aminophenylalanine in P1', steady-state velocities, equation 1

Sequence of factor XIa (fXIa) (P03951 19-387): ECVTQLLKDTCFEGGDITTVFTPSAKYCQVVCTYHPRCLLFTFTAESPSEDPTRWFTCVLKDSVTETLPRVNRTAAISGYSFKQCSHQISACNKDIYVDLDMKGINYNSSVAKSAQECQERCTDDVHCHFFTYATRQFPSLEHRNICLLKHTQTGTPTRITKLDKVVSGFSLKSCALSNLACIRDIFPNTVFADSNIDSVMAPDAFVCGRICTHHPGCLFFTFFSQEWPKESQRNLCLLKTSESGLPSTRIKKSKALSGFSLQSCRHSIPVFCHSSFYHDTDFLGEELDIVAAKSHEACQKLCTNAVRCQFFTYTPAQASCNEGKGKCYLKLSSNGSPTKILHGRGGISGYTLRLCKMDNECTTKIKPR
Sequence of factor XIa (fXIa) (P03951 388-625): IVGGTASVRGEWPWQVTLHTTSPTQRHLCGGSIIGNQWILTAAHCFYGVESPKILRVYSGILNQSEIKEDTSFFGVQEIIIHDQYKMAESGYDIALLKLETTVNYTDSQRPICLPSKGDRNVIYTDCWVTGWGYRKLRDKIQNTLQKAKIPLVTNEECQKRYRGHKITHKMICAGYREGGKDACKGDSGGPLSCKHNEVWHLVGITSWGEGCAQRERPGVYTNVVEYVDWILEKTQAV
Sequence of plasma kallikrein (PK) (P03952 391-638): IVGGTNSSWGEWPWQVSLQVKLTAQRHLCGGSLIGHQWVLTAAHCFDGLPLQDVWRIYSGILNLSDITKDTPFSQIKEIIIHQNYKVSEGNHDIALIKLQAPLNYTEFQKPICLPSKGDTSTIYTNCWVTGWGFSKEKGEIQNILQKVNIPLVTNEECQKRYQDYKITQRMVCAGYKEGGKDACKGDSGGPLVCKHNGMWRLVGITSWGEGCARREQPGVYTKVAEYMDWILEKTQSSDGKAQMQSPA
Sequence of plasma kallikrein (PK) (P03952 20-390): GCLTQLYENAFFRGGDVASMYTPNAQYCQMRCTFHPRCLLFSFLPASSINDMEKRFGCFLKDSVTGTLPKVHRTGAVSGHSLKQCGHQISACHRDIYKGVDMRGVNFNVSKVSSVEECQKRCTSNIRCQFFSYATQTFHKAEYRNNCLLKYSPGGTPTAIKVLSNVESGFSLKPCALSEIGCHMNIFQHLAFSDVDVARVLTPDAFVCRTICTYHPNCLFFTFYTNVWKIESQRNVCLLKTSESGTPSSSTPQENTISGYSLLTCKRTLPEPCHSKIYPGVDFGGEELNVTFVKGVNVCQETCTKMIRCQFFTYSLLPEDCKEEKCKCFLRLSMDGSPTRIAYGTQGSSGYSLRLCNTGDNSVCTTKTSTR
T1 sequence (P00747 581-810): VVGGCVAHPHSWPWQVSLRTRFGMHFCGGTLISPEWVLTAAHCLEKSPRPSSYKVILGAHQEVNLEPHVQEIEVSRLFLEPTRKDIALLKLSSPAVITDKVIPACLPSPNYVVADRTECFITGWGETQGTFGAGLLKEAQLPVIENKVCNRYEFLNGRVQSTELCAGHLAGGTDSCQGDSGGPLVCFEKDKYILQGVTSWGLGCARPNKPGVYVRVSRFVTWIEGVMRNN
T1 sequence (P00747 97-580): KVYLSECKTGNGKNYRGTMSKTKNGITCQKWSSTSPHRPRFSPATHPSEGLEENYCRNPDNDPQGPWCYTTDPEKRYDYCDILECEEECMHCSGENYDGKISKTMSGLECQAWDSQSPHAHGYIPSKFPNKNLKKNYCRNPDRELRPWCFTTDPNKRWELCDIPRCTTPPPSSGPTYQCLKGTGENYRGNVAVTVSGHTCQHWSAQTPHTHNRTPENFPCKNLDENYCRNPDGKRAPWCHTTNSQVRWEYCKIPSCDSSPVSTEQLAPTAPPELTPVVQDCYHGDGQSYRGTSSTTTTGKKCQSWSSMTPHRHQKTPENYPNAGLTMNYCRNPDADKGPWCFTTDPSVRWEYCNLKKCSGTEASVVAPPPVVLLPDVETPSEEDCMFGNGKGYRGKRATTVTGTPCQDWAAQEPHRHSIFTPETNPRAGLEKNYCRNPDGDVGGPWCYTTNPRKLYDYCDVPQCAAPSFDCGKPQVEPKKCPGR
Sequence of activated protein C (aPC) (P04070 43-197): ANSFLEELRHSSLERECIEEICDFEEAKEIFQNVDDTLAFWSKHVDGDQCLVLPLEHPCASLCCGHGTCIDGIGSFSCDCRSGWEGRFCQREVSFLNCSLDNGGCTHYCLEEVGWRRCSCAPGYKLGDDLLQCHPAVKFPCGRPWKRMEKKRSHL
Sequence of activated protein C (aPC) (P04070 212-461): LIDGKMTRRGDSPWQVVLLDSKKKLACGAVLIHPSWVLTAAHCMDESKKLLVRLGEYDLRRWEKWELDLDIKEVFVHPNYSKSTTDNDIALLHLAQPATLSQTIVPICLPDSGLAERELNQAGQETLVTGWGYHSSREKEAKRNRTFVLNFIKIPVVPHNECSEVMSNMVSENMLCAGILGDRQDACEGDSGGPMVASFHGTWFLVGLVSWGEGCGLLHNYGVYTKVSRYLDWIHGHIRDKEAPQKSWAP
Sequence of factor Xa (fXa) (P00742 41-179): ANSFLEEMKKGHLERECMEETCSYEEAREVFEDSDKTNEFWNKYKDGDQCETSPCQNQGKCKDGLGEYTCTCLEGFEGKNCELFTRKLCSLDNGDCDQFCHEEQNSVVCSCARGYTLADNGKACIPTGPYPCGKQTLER
Sequence of factor Xa (fXa) (P00742 235-488): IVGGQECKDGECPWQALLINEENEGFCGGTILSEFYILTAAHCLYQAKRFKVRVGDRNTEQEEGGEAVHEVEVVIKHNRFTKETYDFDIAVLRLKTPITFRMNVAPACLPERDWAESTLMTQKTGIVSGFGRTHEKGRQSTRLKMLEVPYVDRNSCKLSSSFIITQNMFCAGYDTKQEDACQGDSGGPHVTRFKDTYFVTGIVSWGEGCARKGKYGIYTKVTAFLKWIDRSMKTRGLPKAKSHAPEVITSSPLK

## Cc1ccc2cc1NC(=O)CNC(=O)CCNC(=O)c1ccc3cc(ccc3c1)NC(=O)[C@@H](NC(=O)[C@H]1CC[C@H](CN)CC1)Cc1ccc-2cc1 [inhibitor 45]
Human plasmin; [2]
  Ki: 2.53 ± 0.23 nM
Human plasmin; [3]
  Ki: 2.53 nM
[1]
  Ki: > 4 µM
Plasma kallikrein (PK)
  PK selectivity index K i(protease)/Ki(plasmin): 62
  Ki: 156 ± 35 nM
thrombin
  Ki: > 40 µM
Factor XIa (fXIa)
  fXIa selectivity index K i(protease)/Ki(plasmin): 137
  Ki: 320 ± 50 nM
Factor Xa (fXa)
  Ki: > 40 µM

## Cc1ccc2cc1NC(=O)CCNC(=O)CNC(=O)Cc1ccc(cc1)NC(=O)[C@@H](NC(=O)[C@H]1CC[C@H](CN)CC1)Cc1ccc-2cc1 [inhibitor 26]
Human plasmin; [2]
  Ki: 33.1 ± 3.2 nM

## Cc1ccc2cc1NC(=O)CCCCCNC(=O)Cc1ccc(cc1)NC(=O)[C@@H](NC(=O)[C@H]1CC[C@H](CN)CC1)Cc1ccc-2cc1 [inhibitor 22]
Human plasmin; [2]
  Ki: 42 nM and 42.1 nM

## Cc1ccc2cc1NC(=O)[C@@H](N)CCCCNC(=O)Cc1ccc(cc1)NC(=O)[C@@H](NC(=O)[C@H]1CC[C@H](CN)CC1)Cc1ccc-2cc1 [inhibitor 35]
Human plasmin; [2]
  Ki: 29.8 ± 1.6 nM

## NC[C@H]1CC[C@H](C(=O)N[C@H]2Cc3ccc(cc3)NC(=O)CCCCNC(=O)Cc3ccc(cc3)NC2=O)CC1 [inhibitor 7]
Human plasmin; [4]
  Ki: 2450 ± 20 nM

## Cc1ccc2cc1NC(=O)CNC(=O)CCCNC(=O)Cc1ccc(cc1)NC(=O)[C@@H](NC(=O)[C@H]1CC[C@H](CN)CC1)Cc1ccc-2cc1 [inhibitor 28]
Human plasmin
  fold stronger plasmin inhibition than acyclic analogues 46 and 47: approximately 75 fold
Human plasmin; [2]
  Ki: 0.83 nM and 0.832 nM
Human plasmin; [3]
  Ki: 0.832 nM
[1]
  Ki: > 35 µM
Plasma kallikrein (PK)
  PK selectivity index K i(protease)/Ki(plasmin): 38
  Ki: 31 ± 14 nM
thrombin
  Ki: > 60 µM
Factor XIa (fXIa)
  fXIa selectivity index K i(protease)/Ki(plasmin): 49
  Ki: 41 ± 3.2 nM
Factor Xa (fXa)
  Ki: > 8 µM

## Cc1ccc2cc1NC(=O)CN1CCN(CC1)C(=O)Cc1ccc(cc1)NC(=O)[C@@H](NC(=O)[C@H]1CC[C@H](CN)CC1)Cc1ccc-2cc1 [inhibitor 38]
Human plasmin; [2]
  Ki: 35.7 ± 1.1 nM

## Cc1ccc2cc1NC(=O)CNC(=O)CCCNC(=O)c1ccc3cc(ccc3c1)NC(=O)[C@@H](NC(=O)[C@H]1CC[C@H](CN)CC1)Cc1ccc-2cc1 [inhibitor 44]
Human plasmin; read-out: K i (nM), inhibition of plasmin, series two, substituted Bpa in P1', and acyclic analogues, steady-state velocities, equation 1
  Ki: 10.3 ± 0.2 nM

## Cc1ccc2cc1NC(=O)CNC(=O)CCCCNC(=O)Cc1cccc(c1)NC(=O)[C@@H](NC(=O)[C@H]1CC[C@H](CN)CC1)Cc1ccc-2cc1 [inhibitor 39]
Human plasmin; [2]
  Ki: 26.9 ± 0.5 nM

## Cc1ccc(-c2ccc(C[C@H](NC(=O)[C@H]3CC[C@H](CN)CC3)C(=O)Nc3ccc(CC(=O)NCCCC(=O)NCC(N)=O)cc3)cc2)cc1N [inhibitor 47]
Human plasmin; [2]
  Ki: 65.1 ± 1.7 nM

## CC(C)C[C@@H]1NC(=O)CCNC(=O)Cc2ccc(cc2)NC(=O)[C@@H](NC(=O)[C@H]2CC[C@H](CN)CC2)Cc2ccc(cc2)NC1=O [inhibitor 10]
Human plasmin; [4]
  Ki: 3330 ± 410 nM

## NC[C@H]1CC[C@H](C(=O)N[C@H]2Cc3ccc(cc3)NC(=O)CNC(=O)CCNC(=O)Cc3ccc(cc3)NC2=O)CC1 [inhibitor 9]
Human plasmin; [4]
  Ki: 2820 ± 200 nM

## Cc1ccc2cc1NC(=O)CNC(=O)CCCCNC(=O)Cc1ccc(cc1)NC(=O)[C@@H](NC(=O)[C@H]1CC[C@H](CN)CC1)Cc1ccc-2cc1 [inhibitor 29]
Human plasmin; [2]
  Ki: 62.6 ± 2.3 nM

## NC[C@H]1CC[C@H](C(=O)N[C@H]2Cc3ccc(cc3)NC(=O)CCNC(=O)CNC2=O)CC1 [inhibitor 3] (H-[Trx][Phe(4-NH2)]G[βAla]; lactam 2-C)
Human plasmin; [4]
  Ki: 150000 ± 31000 nM

## Cc1ccc(-c2ccc(C[C@H](NC(=O)[C@H]3CC[C@H](CN)CC3)C(=O)Nc3ccc(CC(=O)NCCCC(=O)NCC(=O)O)cc3)cc2)cc1N [inhibitor 46]
Human plasmin; [2]
  Ki: 86.1 ± 6.6 nM

## Cc1ccc2cc1NC(=O)CNC(=O)CCNC(=O)Cc1cccc(c1)NC(=O)[C@@H](NC(=O)[C@H]1CC[C@H](CN)CC1)Cc1ccc-2cc1 [inhibitor 41]
Human plasmin; [2]
  Ki: 20.6 ± 0.5 nM

## NC[C@H]1CC[C@H](C(=O)N[C@H]2Cc3ccc(cc3)NC(=O)CCCCCNC(=O)Cc3cccc(c3)NC2=O)CC1 [inhibitor 5]
Human plasmin; [4]
  Ki: 5810 ± 1090 nM
